Measurements: patent publication US20170138969A1, “System And Method For Measuring Permeability Of Drugs/Toxic/Chemical Compounds” (Indian Institute Of Technology Madras, priority 2014, published 2017)

Assay: Membrane integrity test in lipid monolayer (LB) PAMPA system
Format: in vitro ADME
Method: FIG. 3-4 illustrates graphs 300-400 illustrating the membrane integrity test, in accordance with the disclosed embodiments. The membrane integrity test can be performed according to the standard protocol. An 80 μl aqueous solution containing Lucifer yellow (LY) and Brilliant Cresyl Blue (BCB) in the ratio 1:9 is added into the donor well. The PAMPA system can be assembled and incubated for 5 hours at 25° C. The acceptor plate and donor well are separated and concentration of LY and BCB was analyzed by measuring; Fluorescence: Excitation wavelength @428 mn; Emission wavelength @525 nm; Absorbance; at 610 nm for BCB.
FIG. 3 illustrates the graph 300 showing the permeation of BCB as 0.045; Absorbance units after 5 hours of incubation indicating the presence of integral membrane. Similarly, the graph 400 illustrates the rejection of Lucifer Yellow after 5 hours of incubation indicating the presence of integral membrane. The rejection of Lucifer yellow indicates the presence of an integral membrane.

permeation of BCB (absorbance at 610 nm, acceptor) (PAMPA) | permeation/rejection of Lucifer Yellow (fluorescence, excitation 428 / emission 525 nm) (LY:BCB 1:9 aqueous solution, 80 μl in donor well, after 5 hours of incubation at 25° C.) | Substance
0.045 Absorbance units | – | Brilliant Cresyl Blue [BCB]
– | rejection | Lucifer yellow
